In patent publication US8268889B2, “Treatment of ovarian cancer” (Ramot at Tel-Aviv University Ltd., priority 2006, dated 2012):

Assays:
OVCAR-3 cells [1] = assay: cells; assay type: cell-based
Procedure: The human epithelial ovarian cell line OVCAR-3 was obtained from the American Tissue Culture Collection. Cells were routinely grown in Roswell Park Memorial Institute 1640 medium containing 10% fetal calf serum, 0.1 mM nonessential amino acids, and 2 mM L-glutamine, at 37° C. in a humidified atmosphere of 95% air/5% CO2. To examine the effect of FTS on the anchorage-dependent cell growth, cells were plated at a density of 10×10^4 cells per well in 24-well plates to which either 0.1% DMSO (control) or the test concentrations of FTS were added after 24 h. […] Cells were stained with 3-(4,5-dimethylthiosol-2-yl)-2,5-diphenyltetrazolium bromide (MTT, Sigma Chemical Co., St. Louis, Mo.), incubated for 90 min, and dissolved in 0.3 mL of 100% DMSO. The extent of staining was determined spectrophotometrically (A570, A630) using an enzyme-linked immunosorbent assay reader. All assays were carried out in quadruplicate samples and were repeated three times.
Anchorage-dependent cell growth was examined in cells that were grown in the presence of FTS.

Ras-GTP = assay: Determination of Ras-GTP by GST-RBD pull-down assay and Western immunoblotting; assay type: cell-based, human; conditions: OVCAR-3 cells; for reduction in Ras-GTP: 24 h
Procedure: (§1) OVCAR-3 cells were plated at a density of 1.5×10^6 cells in 10-cm plates and grown for 24 h in the presence of 25 or 50 μM FTS. The cells were lysed in 0.5 mL of the Ras-binding domain of Raf-1 (RBD) lysis buffer [Herrmann, C., Martin, G. A. and Wittinghofer, A., J Biol Chem 270:2901-05 (1995)] containing 0.1 mM orthovanadate. Lysates containing 50 μg protein were used to determine total Ras by Western immunoblotting with pan anti-Ras antibody (Ab) and lysates containing 1500 μg protein to determine Ras-GTP by the glutathione S-transferase RBD pull-down assay followed by Western immunoblotting with pan anti-Ras Ab and enhanced chemiluminescence, as previously described [Fridman, M., Maruta, H. and Gonez, J., J Biol Chem 275:30363-71 (2000)]. Mouse anti β-tubulin Ab (AK-15, Sigma) was used at a dilution of 1:500 to confirm equal protein loading.
(§2) In view of the finding that OVCAR-3 cells expressed significant amounts of Ras and active Ras-GTP (FIGS. 1a and b), Applicants examined whether the Ras antagonist FTS would affect the amounts of Ras and Ras-GTP in these cells in the same way as it affects active Ras in other cell lines [Marom, M., supra.; Elad, G., Paz, A., Haklai, R., Marciano, D., Cox, A., Kloog, Y. Biomed Biochim Acta 8:1452:228-42 (1999); Weisz, B., Giehl, K., Gana-Weisz, M. et al. Oncogene 18:2579-88 (1999)]. The cells were grown for 24 h in serum containing medium with or without 25 or 50 μM FTS. Similar conditions were used in earlier studies with other cell lines [Elad, supra.; Weisz, supra.]. […] Quantitative analysis of the immunoblots disclosed that FTS, at concentrations of 25 and 50 μM, caused significant reductions of 5% and 39%, respectively, in Ras and 19% and 41%, respectively, in Ras-GTP (FIG. 1b).

OVCAR-3 cells [2] = assay: cells; assay type: cell-based; conditions: Homo sapiens, 50 μM FTS alone, read-out: inhibition of cell growth
Procedure: OVCAR-3 cells were plated at a density of 10×10^4 cells per well in 24-well plates and grown for 3 days in the presence of 50 μM FTS. […] This protocol was chosen in order to induce only a small cytotoxic effect, thus enabling a determination of any possible enhanced effect with the Ras inhibitor. The number of live cells was evaluated 3 days later by MTT, as described earlier.
Thus, the greater than additive effect of these two drugs was manifested in an additional decrease of 35% in cell number, which was accounted for by death of the cells.

Ras = assay: Determination of total Ras by Western immunoblotting with pan anti-Ras antibody; assay type: cell-based, human; conditions: OVCAR-3 cells; for reduction in Ras: 24 h
Procedure: as §1, §2

[3] = FTS alone, concentration not given

CC(C)=CCC/C(C)=C/CC/C(C)=C/CSc1ccccc1C(=O)O [FTS, farnesylthiosalicylic acid]
IC50 (OVCAR-3 cells [1]; Homo sapiens, OVCAR-3, read-out: IC50 (concentration causing 50% inhibition of cell growth)): 54 µM
foci formation and growth (OVCAR-3 cells [1]; OVCAR-3 cultures, 7 days with 25 or 50 μM FTS): strongly inhibited
reduction in Ras-GTP (Ras-GTP; 25 μM FTS): 19%
reduction in Ras-GTP (Ras-GTP; 50 μM FTS): 41%
Ras-GTP reduced (summary statement) (Ras-GTP; [3]): 40%
inhibition at 50 µM (OVCAR-3 cells [2]): 45%
reduction in Ras (Ras; 25 μM FTS): 5%
reduction in Ras (Ras; 50 μM FTS): 39%
Ras reduced (summary statement) (Ras; [3]): 40%
